{"source": "patent US12358892B2", "about": "“Metalloenzyme inhibitors for treating cancers, Alzheimer's disease, hemochromatosis, and other disorders” (Miralogx LLC, priority 2020, dated 2025)", "key": {"[1]": {"tested_on": "12 human primary cell-based systems", "assay": "BioMAP Diversity PLUS panel, protein biomarker readouts and cytotoxicity", "from_the_text": "This example describes testing the compound prepared in Example 1 in the BioMAP Diversity PLUS (Eurofins Discovery, Burlingame, California) panel of 12 human primary cell-based systems designed to model different aspects of the human body in an in vitro format. The 12 systems in the Diversity PLUS panel allow test agent characterization in an unbiased way across a broad set of systems modeling various human disease states. BioMAP systems are constructed with one or more primary cell types from healthy human donors, with stimuli (such as cytokines or growth factors) added to capture relevant signaling networks that naturally occur in human tissue or pathological conditions. Vascular biology is modeled in both a Th1 (3C system) and a Th2 (4H system) inflammatory environment, as well as in a Th1 inflammatory state specific to arterial smooth muscle cells (CASM3C system). Additional systems recapitulate aspects of the systemic immune response including monocyte-driven Th1 inflammation (LPS system) or T cell stimulation (SAg system), chronic Th1 inflammation driven by macrophage activation (lMphg system) and the T cell-dependent activation of B cells that occurs in germinal centers (BT system). The BE3C system (Th1) and the BF4T system (Th2) represent airway inflammation of the lung, while the MyoF system models myofibroblast-lung tissue remodeling. Lastly, skin biology is addressed in the KF3CT system modeling Th1 cutaneous inflammation and the HDF3CGF system modeling wound healing.\nThe X-axis lists the quantitative protein-based biomarker readouts measured in each system. The Y-axis represents a log-transformed ratio of the biomarker readouts for the drug-treated sample (n=1) over vehicle controls (n≥6). The grey region around the Y-axis represents the 95% significance envelope generated from historical vehicle controls. Biomarker activities are annotated when two or more consecutive concentrations change in the same direction relative to vehicle controls, are outside of the significance envelope, and have at least one concentration with an effect size >20% (|log 10 ratio|>0.1). Biomarker key activities are described as modulated if these activities increase in some systems, but decrease in others. Cytotoxicity is indicated on the profile plot by a thin black arrow above the X-axis, and antiproliferative effects are indicated by a thick grey arrow. Cytotoxicity and antiproliferative arrows only require one concentration to meet the indicated threshold for profile annotation. As summarized in Table 2 below, the compound was active with 35 annotated readouts. Specifically, the compound impacted inflammation-related activities (decreased Eotaxin 3, VCAM-1, MCP-1, SAA, sTNFα, MIP-1α; increased IL-1α, IL-6; modulated IL-8), immunomodulatory activities (decreased CD40, sIL-1β, sIgG, M-CSF, sIL-17A, sIL-6, sIL-17F, sIL-2), tissue remodeling activities (decreased PAI-1, uPAR, αSMA, Keratin 8/18; increased collagen I, MMP-1), and hemostasis-related activities (increased TF).\nBioMAP® panels consist of human primary cell-based systems designed to model different aspects of the human body in an in vitro format. BioMAP® systems are constructed with one or more primary cell types from healthy human donors, with stimuli (such as cytokines or growth factors) added to capture relevant signaling networks that naturally occur in human tissue or pathological conditions. Vascular biology is modeled in both a Th1 (3C system) and a Th2 (4H system) inflammatory environment, as well as in a Th1 inflammatory state specific to arterial smooth muscle cells (CASM3C system). Additional systems recapitulate aspects of the systemic immune response including monocyte-driven Th1 inflammation (LPS system) or T cell stimulation (SAg system), chronic Th1 inflammation driven by macrophage activation (Mphg system) and the T cell-dependent activation of B cells that occurs in germinal centers (BT system). […]"}, "T cells": {"tested_on": "T cells", "assay": "BioMAP proliferation readout, T cells", "format": "cell-based, human", "conditions": "100 μM, 33 μM", "from_the_text": "The X-axis lists the quantitative protein-based biomarker readouts measured in each system. The Y-axis represents a log-transformed ratio of the biomarker readouts for the drug-treated sample (n=1) over vehicle controls (n≥6). The grey region around the Y-axis represents the 95% significance envelope generated from historical vehicle controls. Biomarker activities are annotated when two or more consecutive concentrations change in the same direction relative to vehicle controls, are outside of the significance envelope, and have at least one concentration with an effect size >20% (|log 10 ratio|>0.1). Biomarker key activities are described as modulated if these activities increase in some systems, but decrease in others. […] As summarized in Table 2 below, the compound was active with 35 annotated readouts. […]\nHuman primary cells in BioMAP® systems are used at early passage (passage 4 or earlier) to minimize adaptation to cell culture conditions and preserve physiological signaling responses. […] Test agents prepared in either DMSO (small molecules; final concentration ≤0.1%) or PBS (biologics) are added at the indicated concentrations 1-hr before stimulation, and remain in culture for 24-hrs or as otherwise indicated (48-hrs, MyoF system; 72-hrs, BT system (soluble readouts); 168-hrs, BT system (secreted IgG)). […]"}, "[2]": {"conditions": "Example 3.2, hemostasis-related activities"}, "[3]": {"conditions": "Example 3.2, immunomodulatory activities"}, "[4]": {"conditions": "Example 3.2, inflammation-related activities"}, "[5]": {"conditions": "Example 3.2, tissue remodeling activities"}}}
{"smiles": "C1=NC(c2cncc(C3CCC=N3)c2)CC1", "note": "(stereo not drawn) [3,5-bis(3,4-dihydro-2H-pyrrol-2-yl)pyridine]", "values": [{"measurement": "LDLR", "setting": "[1]; Example 3.2", "result": "decrease"}, {"measurement": "TF", "setting": "[1]; [2]", "result": "increased"}, {"measurement": "TM", "setting": "[1]; [2]", "result": "decreased"}, {"measurement": "CD38", "setting": "[1]; [3]", "result": "decreased"}, {"measurement": "CD40", "setting": "[1]; [3]", "result": "decreased"}, {"measurement": "HLA-DR", "setting": "[1]; [3]", "result": "decreased"}, {"measurement": "sIL-1β", "setting": "[1]; [3]", "result": "decreased"}, {"measurement": "sIL-2", "setting": "[1]; [3]", "result": "decreased"}, {"measurement": "sIL-6", "setting": "[1]; [3]", "result": "decreased"}, {"measurement": "sIL-17A", "setting": "[1]; [3]", "result": "decreased"}, {"measurement": "sIL-17F", "setting": "[1]; [3]", "result": "decreased"}, {"measurement": "sIgG", "setting": "[1]; [3]", "result": "decreased"}, {"measurement": "Eotaxin 3", "setting": "[1]; [4]", "result": "decreased"}, {"measurement": "IL-6", "setting": "[1]; [4]", "result": "decreased"}, {"measurement": "IL-8", "setting": "[1]; [4]", "result": "modulated"}, {"measurement": "MCP-1", "setting": "[1]; [4]", "result": "decreased"}, {"measurement": "MIG", "setting": "[1]; [4]", "result": "decreased"}, {"measurement": "P-selectin", "setting": "[1]; [4]", "result": "decreased"}, {"measurement": "VCAM-1", "setting": "[1]; [4]", "result": "decreased"}, {"measurement": "sPGE2", "setting": "[1]; [4]", "result": "increased"}, {"measurement": "sTNFα", "setting": "[1]; [4]", "result": "modulated"}, {"measurement": "Collagen IV", "setting": "[1]; [5]", "result": "decreased"}, {"measurement": "MMP9", "setting": "[1]; [5]", "result": "decreased"}, {"measurement": "MMP-1", "setting": "[1]; [5]", "result": "decreased"}, {"measurement": "PAI-1", "setting": "[1]; [5]", "result": "decreased"}, {"measurement": "TIMP-1", "setting": "[1]; [5]", "result": "decreased"}, {"measurement": "alphaSMA", "setting": "[1]; [5]", "result": "decreased"}, {"measurement": "uPAR", "setting": "[1]; [5]", "result": "decreased"}, {"measurement": "cytotoxicity", "setting": "[1]; at the concentrations tested in this study", "result": "not cytotoxic"}, {"measurement": "antiproliferative effect on T cells", "setting": "T cells", "result": "antiproliferative"}]}
